Inconclusive results and toxic doses are left out. Cut-off read from the data, not from the text of the source: active = T/C of 150% or more; inactive = T/C below 125%.
Tested on: L1210 leukemia ip in BDF1 mice, survival T/C
Assay: NCI In Vivo Anticancer Drug Screen. Data for tumor model L1210 Leukemia (intraperitoneal) in B6D2F1 (BDF1) mice
Details: endpoint: mean survival time, higher = longer survival
Outline: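 In this screen, tumor-bearing mice given compound are compared to those given vehicle, and their survival values are reported as a treated-to-control quotient.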

[1] = dose: 100.0 mg/kg/injection, schedule: Q01DX001 (ip), vehicle: Klucel (hydroxypropylcellulose) (HPC)
[2] = dose: 200.0 mg/kg/injection, schedule: Q01DX001 (ip), vehicle: Klucel (hydroxypropylcellulose) (HPC)
[3] = dose: 400.0 mg/kg/injection, schedule: Q01DX001 (ip), vehicle: Klucel (hydroxypropylcellulose) (HPC)
[4] = dose: 100.0 mg/kg/injection, schedule: Q01DX009 (ip), vehicle: Klucel (hydroxypropylcellulose) (HPC)
[5] = dose: 200.0 mg/kg/injection, schedule: Q01DX009 (ip), vehicle: Klucel (hydroxypropylcellulose) (HPC)
[6] = dose: 400.0 mg/kg/injection, schedule: Q01DX009 (ip), vehicle: Klucel (hydroxypropylcellulose) (HPC)
[7] = dose: 75.0 mg/kg/injection, schedule: Q01DX001 (ip), vehicle: saline
[8] = dose: 100.0 mg/kg/injection, schedule: Q04DX003 (ip), vehicle: Klucel (hydroxypropylcellulose) (HPC)
[9] = dose: 150.0 mg/kg/injection, schedule: Q01DX001 (ip), vehicle: saline
[10] = dose: 200.0 mg/kg/injection, schedule: Q04DX003 (ip), vehicle: Klucel (hydroxypropylcellulose) (HPC)
[11] = dose: 400.0 mg/kg/injection, schedule: Q04DX003 (ip), vehicle: Klucel (hydroxypropylcellulose) (HPC)
[12] = dose: 12.5 mg/kg/injection, schedule: Q04DX003 (ip), vehicle: saline
[13] = dose: 25.0 mg/kg/injection, schedule: Q04DX003 (ip), vehicle: saline
[14] = dose: 100.0 mg/kg/injection, schedule: Q04DX003 (ip), vehicle: saline with Tween-80
[15] = dose: 200.0 mg/kg/injection, schedule: Q04DX003 (ip), vehicle: saline with Tween-80
[16] = dose: 400.0 mg/kg/injection, schedule: Q04DX003 (ip), vehicle: saline with Tween-80
[17] = dose: 100.0 mg/kg/injection, schedule: Q01DX001 (ip), vehicle: saline with Tween-80
[18] = dose: 200.0 mg/kg/injection, schedule: Q01DX001 (ip), vehicle: saline with Tween-80
[19] = dose: 400.0 mg/kg/injection, schedule: Q01DX001 (ip), vehicle: saline with Tween-80
[20] = dose: 100.0 mg/kg/injection, schedule: Q01DX009 (ip), vehicle: saline with Tween-80
[21] = dose: 200.0 mg/kg/injection, schedule: Q01DX009 (ip), vehicle: saline with Tween-80
[22] = dose: 100.0 mg/kg/injection, schedule: Q04DX003 (ip), vehicle: saline
[23] = dose: 200.0 mg/kg/injection, schedule: Q04DX003 (ip), vehicle: saline
[24] = dose: 400.0 mg/kg/injection, schedule: Q04DX003 (ip), vehicle: saline

Measured: T/C

CCCCC1=CC(=O)C2CCCCC2C1=O (stereo unspecified)
inactive: [1] 102 % of control | [2] 105 % of control | [3] 92 % of control

CCCCNC(=O)N(C)Cc1ccccc1
inactive: dose: 100.0 mg/kg/injection, schedule: Q04DX002 (ip), vehicle: Klucel (hydroxypropylcellulose) (HPC) 105 % of control | dose: 200.0 mg/kg/injection, schedule: Q04DX002 (ip), vehicle: Klucel (hydroxypropylcellulose) (HPC) 97 % of control | dose: 400.0 mg/kg/injection, schedule: Q04DX002 (ip), vehicle: Klucel (hydroxypropylcellulose) (HPC) 112 % of control

CCc1cccc(CC)c1N1C(=O)CC(Sc2ccccc2N)C1=O (stereo unspecified)
inactive: dose: 100.0 mg/kg/injection, schedule: Q01DX009 (ip), vehicle: gum acacia 93 % of control | dose: 100.0 mg/kg/injection, schedule: Q04DX003 (ip), vehicle: gum acacia 96 % of control | dose: 200.0 mg/kg/injection, schedule: Q01DX009 (ip), vehicle: gum acacia 91 % of control | dose: 200.0 mg/kg/injection, schedule: Q04DX003 (ip), vehicle: gum acacia 91 % of control | dose: 400.0 mg/kg/injection, schedule: Q01DX009 (ip), vehicle: gum acacia 98 % of control | dose: 400.0 mg/kg/injection, schedule: Q04DX003 (ip), vehicle: gum acacia 100 % of control

Cc1ccc(C(C)C)c(OC(=O)NCCCCCCNC(=O)Oc2cc(C)ccc2C(C)C)c1
inactive: [4] 93 % of control | [5] 94 % of control | [6] 98 % of control

O=C(CNCc1ccccc1)c1ccc(Cl)cc1
inactive: dose: 50.0 mg/kg/injection, schedule: Q01DX001 (ip), vehicle: Klucel (hydroxypropylcellulose) (HPC) 93 % of control | [1] 96 % of control | [2] 93 % of control | [3] 93 % of control

COc1ccccc1-n1c(O)c(N=Nc2ccc(C)cc2)c(=O)n(-c2ccccc2)c1=S
inactive: [1] 103 % of control | [2] 97 % of control | [3] 91 % of control

CC(=O)Nc1nc(NC(C)=O)c2nc(CCN(C)c3ccc(C(=O)O)cc3)cnc2n1
inactive: [7] 106 % of control | [8] 95 % of control | [9] 101 % of control | [10] 95 % of control | dose: 300.0 mg/kg/injection, schedule: Q01DX001 (ip), vehicle: saline 101 % of control | [11] 100 % of control

CS(=O)(=O)O/C=C(\C#N)C(=O)O
inactive: dose: 100.0 mg/kg/injection, schedule: Q01DX001 (ip), vehicle: carboxymethylcellulose (CMC) 103 % of control | dose: 200.0 mg/kg/injection, schedule: Q01DX001 (ip), vehicle: carboxymethylcellulose (CMC) 106 % of control

O=C(C[n+]1ccc2ccccc2c1)c1ccc([N+](=O)[O-])cc1
inactive: [12] 101 % of control | [13] 103 % of control | dose: 50.0 mg/kg/injection, schedule: Q04DX003 (ip), vehicle: saline 107 % of control

CN(C(=O)Sc1ccc([N+](=O)[O-])cc1)c1ccccc1
inactive: [14] 91 % of control | [15] 89 % of control | [16] 91 % of control

COc1ccccc1CC(=O)O
inactive: dose: 100.0 mg/kg/injection, schedule: Q01DX001 (ip), vehicle: saline 100 % of control | [14] 101 % of control | dose: 200.0 mg/kg/injection, schedule: Q01DX001 (ip), vehicle: saline 103 % of control | [15] 105 % of control | dose: 400.0 mg/kg/injection, schedule: Q01DX001 (ip), vehicle: saline 108 % of control | [16] 101 % of control

COc1cc(O)c(OC)cc1O
inactive: [4] 100 % of control | [8] 105 % of control | [5] 103 % of control | [10] 103 % of control | [6] 97 % of control | [11] 102 % of control

CCOc1ccc(-n2cnc3ccccc3c2=O)cc1CN(CCCl)CCCl
inactive: [1] 100 % of control | [2] 102 % of control | [3] 100 % of control

CCc1ccccc1NC(=O)Nc1ccccc1C(N)=O
inactive: [4] 87 % of control | [5] 93 % of control | [6] 93 % of control

Cc1ccc(S(=O)(=O)OCC2OCOC2C2OCOC2C)cc1 (stereo unspecified)
inactive: [17] 104 % of control | [18] 93 % of control | [19] 97 % of control

Oc1c2ccsc2cc2ccsc12
inactive: [17] 94 % of control | [18] 94 % of control | [19] 91 % of control

O=C(O)CC(NC(=O)OCc1ccccc1)C(=O)OCc1ccccc1 (stereo unspecified)
inactive: [20] 107 % of control | [14] 104 % of control | [21] 93 % of control | [15] 107 % of control | dose: 400.0 mg/kg/injection, schedule: Q01DX009 (ip), vehicle: saline with Tween-80 91 % of control | [16] 96 % of control

Nc1nc2nc(C(=O)O)cnc2c(=O)[nH]1
inactive: [12] 95 % of control | [13] 102 % of control

CCC(C(OC(C)=O)C(C)C)[N+](=O)[O-] (stereo unspecified)
inactive: dose: 9.38 mg/kg/injection, schedule: Q01DX001 (ip), vehicle: other 104 % of control | dose: 18.75 mg/kg/injection, schedule: Q01DX001 (ip), vehicle: other 105 % of control

O=C(O)CN(CC(=O)O)c1ccc(/C=C/c2ccc(N(CC(=O)O)CC(=O)O)c(S(=O)(=O)O)c2)cc1S(=O)(=O)O
inactive: dose: 100.0 mg/kg/injection, schedule: Q01DX009 (ip), vehicle: saline 100 % of control | [22] 112 % of control | dose: 200.0 mg/kg/injection, schedule: Q01DX009 (ip), vehicle: saline 105 % of control | [23] 100 % of control | dose: 400.0 mg/kg/injection, schedule: Q01DX009 (ip), vehicle: saline 103 % of control | [24] 100 % of control

O=C(O)c1cc(N2C(=O)C=CC2=O)cc(N2C(=O)C=CC2=O)c1
inactive: dose: 11.1 mg/kg/injection, schedule: Q01DX Z (ip), vehicle: methylcellulose (MC) 102 % of control | dose: 16.6 mg/kg/injection, schedule: Q01DX Z (ip), vehicle: methylcellulose (MC) 102 % of control | dose: 25.0 mg/kg/injection, schedule: Q01DX Z (ip), vehicle: methylcellulose (MC) 94 % of control

O=C(c1ccccc1)C(c1ccccc1)C(O)(C(F)(F)F)C(F)(F)F (stereo unspecified)
inactive: [20] 103 % of control | [21] 97 % of control

O=C1c2ccccc2C(=O)N1OCCCCCCON1C(=O)c2ccccc2C1=O
inactive: [22] 92 % of control | [23] 94 % of control | [24] 97 % of control

CCCP(=S)(CCC)Oc1ccc([N+](=O)[O-])cc1
inactive: [7] 95 % of control | [9] 98 % of control
